Article PMC5838563, “Compounds producing an effective combinatorial regimen for disruption of HIV‐1 latency” (EMBO Molecular Medicine, 2017)
Like-named read-outs stand apart in the source and are kept apart here.

Tests used:
HIV reservoir = conditions: cited from earlier work
[1] = tested on: HIV‐1 LTR (Jurkat^Tat LTR‐luciferase cell line); test: Jurkat^Tat LTR‐luciferase reporter assay for HIV‐1 latency reversal; assay type: cell-based; conditions: for EC50: Human immunodeficiency virus 1, 24 h treatment, percent activation relative to PMA; for latency‐reversing activity of PH02 analogs compared with PH02: 24 h, also in Jurkat^Tat LTR‐DsRed clones #11 and #131
Method: Activity of compounds identified for latency‐reversing activity in the primary screens was further validated by examining the effect of a single concentration (7 μM) on an alternative reporter cell line, bearing an integrated HIV‐1 reporter virus where luciferase expression is produced from the 5′ LTR, in cells constitutively expressing the viral TAT protein (Fig 2A), referred to as Jurkat^Tat LTR‐luciferase. Importantly, this cell line has the HIV‐1 reporter virus integrated at a different chromosomal location than that of the A1 J‐Lat cell line and also enables validation of provirus reactivation with a second enzymatic luciferase assay. In these assays, after 24‐h treatment we observed 10 compounds that produced significant induction of luciferase activity, including two compounds from the KD2 library, three from the CCBN library and five compounds from the DIVERSet. Compounds that produced significant effects in these secondary assays were re‐ordered from their respective suppliers and examined in more detail using the HIV‐luciferase reporter cell line. […] These five compounds represent diverse chemical structures (Fig 2G).
Figure 2 Concentration–response analysis for five selected PH compounds • A Schematic representation of the pTY‐LAI‐luciferase reporter virus used in secondary screening assays, where luciferase expression is under the control of the 5′ LTR, in cloned lines derived from Jurkat^TAT cells bearing single‐copy integrants. • B–F Luciferase activity was measured from reporter cells treated for 24 h with the indicated compound concentrations. Results are presented as percent activation relative to PMA‐treated controls. The EC50 for each compound is indicated. Mean and standard error (SE) for the results are determined from three biological replicates (n = 3) and technical duplicates. • G Illustration of chemical structures of the PH compounds.
Luciferase assays were performed in 96‐well plate format, where 100 μl of cell culture containing 1 × 10^5 luciferase reporter cells was plated per well. After the indicated time of treatment, 100 μl of luciferase assay reagent (SuperlightTM luciferase reporter Gene Assay Kit; BioAssay Systems) was added per well, and incubated for 2 min at RT, when luciferase activity was measured on a VictorTM X3 Multilabel Plate Reader. Results were presented relative to the positive control samples treated with 50 nM PMA. T‐cell activation was measured using 1 × 10^5 wild‐type Jurkat^Tat cells or PBMCs purified from healthy donors, treated as indicated. After 24 h, cells were incubated with 2.4G2 antibody to block nonspecific binding and further stained with 5 μl of anti‐human CD69 or an IgG1 isotype control antibody conjugated with PE‐Cy^Tm7. After 30‐min incubation on ice, the cells were washed twice with PBS and analyzed using a Becton Dickinson LSRII flow cytometer (BD Biosciences) to determine mean fluorescence intensity (MFI), using FlowJo software. The mean fluorescence intensity (MFI) obtained from cells stained with IgG isotype antibody control was subtracted from that from cells stained with CD69 to compensate for background (MFICD69‐MFIIgG). IL‐2 production was measured in cell culture supernatants using a human IL‐2 ELISA System (eBioscience). Jurkat^Tat clones bearing integrations of the mini‐dual HIV reporter virus, clone #11 and #131, were plated at 1 × 10^5 per well in a 96‐well plate format, treated for the indicated time, washed with 1 ml PBS, and then transferred into flow cytometry tubes, where they were fixed with freshly made 1% formaldehyde for 10 min at RT prior to analysis by flow cytometry. Results are presented as ΔMFI, where MFI obtained from parental Jurkat^Tat cells undergoing the same treated was subtracted from the MFI corresponding to each cell line; ΔMFI = (MFI compound‐treated cell line 131/11 − MFI compound‐treated WT Jurkat^Tat cells).

[2] = tested on: latent HIV‐1 provirus in resting CD4^+ T cells from HIV‐1‐infected patients; test: Supernatant HIV‐1 RNA from resting CD4+ T cells of patients (RT–qPCR); assay type: cell-based; conditions: 24 h
Method: For this analysis, we purified resting CD4^+ (rCD4^+) T lymphocytes from pools of patient samples by two‐step negative selection (Appendix Table S3). […] Purified rCD4^+ T cells were treated with 30 μM of each PH compound for 24 h, and RNA from the culture supernatants was analyzed by one‐step RT–qPCR, where results are presented as copy numbers of the virion/ml. […] Based on its capability for reactivating latent provirus at multiple chromosomal locations in cell lines, its negligible toxic effect, and that it produces the most robust reactivation of virus from patient samples, we focused our subsequent analysis on this compound (Table 1).
Figure 8 Effect of PH compounds on expression of HIV provirus in latently infected cells from patients Resting CD4^+ T cells purified from patient samples (n = 18, Appendix Table S3) were treated with 30 μM of each PH compound for 24 h, and HIV‐1 RNA was measured in culture supernatants. Results are presented as HIV virions/ml (mean ± SE). LOD indicates the limit of detection, 100 copies/ml culture supernatant. TEXT PRINTED IN THE PICTURE: PMA: Supernatant HIV-1 mRNA (Copies/ml): 308929.80 (50 nM) | PH01: Supernatant HIV-1 mRNA (Copies/ml): 5348.04 (Single Concentration (30μM)) | PH02: Supernatant HIV-1 mRNA (Copies/ml): 17624.53 (Single Concentration (30μM)) | PH03: Supernatant HIV-1 mRNA (Copies/ml): 4714.11 (Single Concentration (30μM)) | PH04: Supernatant HIV-1 mRNA (Copies/ml): 7134.68 (Single Concentration (30μM)) | PH05: Supernatant HIV-1 mRNA (Copies/ml): 587.19 (Single Concentration (30μM))
HIV‐1 RNA was measured from 1 × 10^6 resting CD4^+ T lymphocytes treated with 30 μM of each compound. Extracellular RNA was isolated using the ZR Viral RNA Kit (Zymo Research) and total cellular mRNA using the RNeasy MinElute cleanup kit (Qiagen). HIV‐1 RNA concentrations were assayed in one‐step RT–qPCRs using the iTaq™ universal SYBR Green one‐step kit (BIO‐RAD) with the HIV‐1 LTR‐specific primers, AGCCGCCTAGCATTTCATC and […]. RNA copy number was calculated using a standard curve generated from titrated infections with RGH‐PGK virus (Dahabieh et al, 2013). Reproducibility of RT–qPCR analysis was confirmed using a second set of primers within HIV‐1 p24 Gag, AGCAGCCATGCAAATGTTA, […]. HIV‐1 RNA determinations were normalized to GAPDH RNA measured using the primers […] and […].

[3] = tested on: HIV‐1 LTR (Jurkat^Tat LTR‐DsRed clone #11); test: mdHIV LTR‐DsRed reporter assay, clone #11; assay type: cell-based; conditions: PMA stimulation, of eGFP expressing cells
Excerpt: HIV‐1 tends to integrate into actively transcribed regions of the host genome (Jordan et al, 2003; Lewinski et al, 2006; Ikeda et al, 2007). Each HIV‐1‐infected patient carries viral DNA integrated at different chromosomal locations, and as we have previously shown, the site of viral integration influences how latently infected T cells respond to different stimuli (Hashemi et al, 2016). Therefore, an ideal LRA should be capable of disrupting latency in cell models carrying integrated viral reporters at multiple different regions within the host genome. To assess this capability for the PH compounds, we used two additional previously described cell lines, designated Jurkat^Tat LTR‐DsRed clones #11, and #131, that carry a mini‐dual fluorescent HIV‐1 LTR reporter (mdHIV) at different chromosomal locations. The minivirus mdHIV has two fluorescent reporters in which DsRed expression is driven from the 5′ LTR, and eGFP is constitutively expressed from an internal EIF‐1α promoter (Fig 5A). […]
Figure 5 Effect of PH02 on HIV provirus integrated at different chromosomal locations • A The effect of PH compounds was analyzed using clonal lines bearing single‐copy integrations of the mini‐dual fluorescent HIV‐1 LTR reporter, md‐HIV, where GFP is constitutively expressed from the EIF‐1α internal promoter, and DsRed from the 5′ LTR. • B Fluorescence‐activated cell sorting (FACS) of cells bearing md‐HIV provirus indicates expression of EIF‐1α‐GFP and LTR‐dsRed. Stimulation of the md‐HIV lines generally causes a shift of the fluorescence profile from GFP^+/DsRed^− toward GFP^+/DsRed^+. • C, D Clone 11 or clone 131 was treated with the indicated concentrations of PH02 (left panels) or PH02 in combination with 10 nM PEP005 (right panels) for 24 h and cells analyzed by flow cytometry. Results presented as Δmean fluorescence intensity (ΔMFI) of DsRed expression and fold increase in DsRed expression for solo and combination treatments, respectively. Mean and SE are determined from three biological replicates (n = 3) and technical duplicates. […]

Compound	EC50 [1]	Supernatant HIV-1 mRNA ([2]; 30 μM, LOD 100 copies/ml)	other results
Cc1[nH]c2ccccc2c1CCNCc1ccc(/C=C/C(=O)NO)cc1 [Panobinostat]			reduction in the HIV reservoir (HIV reservoir; 20 mg three times a week every other week for 8 weeks, ref Rasmussen et al, 2014): did not produce a reduction in the HIV reservoir
Cn1c(C=Cc2c[nH]c3ccccc23)nc2ccccc2c1=O [PH01, 2‐[2‐(1H‐indol‐3‐yl)vinyl]‐3‐methyl‐4(3H)‐quinazolinone]	141 nM	5348.04 Copies/ml	
COc1ccccc1N(C=O)/C=C1\Sc2ccccc2C1=O [PH02b, (2-methoxyphenyl)[(3-oxo-1-benzothien-2(3H)-ylidene)methyl]formamide]			latency‐reversing activity of PH02 analogs compared with PH02 [1]: significant reduction
Cc1cc(I)cnc1NC(=S)NC(=O)c1ccco1 [PH04, N‐{[(5‐iodo‐3‐methyl‐2‐pyridinyl)amino]carbonothioyl}‐2‐furamide]	2560 nM	7134.68 Copies/ml	
Cl.Nc1ccc(-c2ccc3ccccc3n2)cc1 [PH03, 2‐(4‐aminophenyl)quinoline hydrochloride]	1250 nM	4714.11 Copies/ml	
O=C(CCCCCCC(=O)Nc1ccccc1)NO [Vorinostat, suberoylanilide hydroxamic acid]			reduction in the HIV reservoir (HIV reservoir; 400 mg daily for 14 days or 3 days a week for 8 weeks, ref Archin et al, 2014, Elliott et al): did not produce a reduction in the HIV reservoir
COc1cccc(-n2nnc(C(=O)Nc3ccc(C)cc3)c2C)c1 [PH05, 1‐(3‐methoxyphenyl)‐5‐methyl‐N‐(4‐methylphenyl)‐1H‐1,2,3‐triazole‐4‐carboxamide]	5900 nM	587.19 Copies/ml	
COc1ccccc1N(/C=C1\Sc2ccccc2C1=O)C(C)=O [PH02a, N-(2-methoxyphenyl)-N-[(3-oxo-1-benzothien-2(3H)-ylidene)methyl]acetamide]			latency‐reversing activity of PH02 analogs compared with PH02 [1]: significant reduction
CCCCCCCCCCCCCC(=O)O[C@@H]1[C@@H](C)[C@@]2(O)[C@@H](C=C(CO)C[C@]3(O)C(=O)C(C)=C[C@@H]23)[C@@H]2C(C)(C)[C@]12OC(C)=O [PMA, phorbol 12‐myristate 13‐acetate, reference compound]			cells producing dsRed expression upon stimulation [3]: ~ 40%; Supernatant HIV-1 mRNA ([2]; 50 nM, positive control): 308929.80 Copies/ml
